Data reported in patent US10457665B2, “1,4-di-(4-methylthiophenyl)-3-phtaloylazetidine-2-one and the derivatives thereof” (Universite De Nantes, priority 2015, dated 2019).

System: obese C57BL/6 mice
Assay: Glucose tolerance test after 43-day oral treatment with low-fat diet
Type: in vivo, mouse
Details: 43 days, orally 10 mg/kg once per day
Procedure: In order to evaluate the long-term effects of the treatment on blood glucose control, glucose tolerance was evaluated at the end of the treatment period. The mice received an intraperitoneal injection of glucose (2 g/kg) then blood glucose was measured at times t=0, t=15 min, t=30 min, t=45 min, t=60 min, t=90 min, and t=120 min post-glucose injection using a My Life Pura blood glucose monitor (Ypsomed, Paris, France).

Compound: CSc1ccc(C2C(N3C(=O)c4ccccc4C3=O)C(=O)N2c2ccc(SC)cc2)cc1 (stereo not drawn) [JM-00.266, trans-1,4-di-(4-methylthiophenyl)-3-N-phthaloyl-azetidine-2-one]
- glucose tolerance versus VEH+LF and VEH+HF: better glucose tolerance
